Data published in patent publication US11576897B2, “Therapeutic agent for non-motor symptoms associated with Parkinson's disease” (priority 2017, dated 2023).
Counter-ions that a name gives are not always drawn. Like-named read-outs stand apart in the source and are kept apart here. Marks after values point to notes of the source that are not given here.

What was measured:
[1] = target: human serotonin transporter (SERT) (Homo sapiens (Human), UniProt P31645); assay: Human serotonin transporter (SERT) binding test
[2] = target: serotonin 5-HT2A receptor (Rattus norvegicus (Rat), UniProt P14842); assay: Rat tryptamine-induced forelimb clonic convulsion model; format: in vivo; conditions: orally or subcutaneously 60 minutes before tryptamine 25 mg/kg intravenously, SD-male rats
Method: Test 2: Rat Tryptamine-Induced Forelimb Clonic Convulsion Model for Evaluation of In Vivo Serotonin 5-HT2A Receptor Antagonism
Evaluation was conducted in a rodent tryptamine-induced forelimb clonic convulsion model which has been known as one of the methods for assessing the serotonin 5-HT2A receptor antagonism in vivo.
Seven-week-old SD-male rats were used. A dose solution for a test compound was prepared with 0.5% methylcellulose solution or saline for a solvent. A test compound was used in the form of a dose solution obtained by mixing with 0.5% methylcellulose solution to get cloudy (for oral administration) or dissolving in saline (for subcutaneous administration). Tryptamine was used and dissolved in saline as a substance inducing clonic convulsion.
A dose solution of a test compound or a solvent only was administered orally or subcutaneously to rats at the start of the test, and after 60 minutes of the administration, a saline solution containing tryptamine 25 mg/kg was administered intravenously to rats. Rats were transferred to an observation cage right after the administration of tryptamine, and their forelimb clonic convulsion was evaluated for 3 minutes.
The average inhibition ratio of each individual calculated from the following equation was deemed to be the inhibition ratio of each administration group. Inhibition ratio of each individual=(Average score of the solvent-administered group−Score of each individual)/Average score of the solvent-administered group×100
Statistical analysis of the test results was conducted by the following procedures with Stat Preclinica (Takumi Information Technology):
1) Jonckheere-Terpstra test was conducted in the solvent-administered group and test compound-administered group with the forelimb clonic convulsion score as indicator. […] 2) Non-parametric Dunnett's multiple comparison (Joint Ranking)-measured value was conducted between the solvent-administered group and test compound-administered group with the forelimb clonic convulsion score as indicator. […]

human 5-HT2A receptor = human 5-HT2A receptor (Homo sapiens (Human), UniProt P28223); assay: biochemical; format: binding
human D2L receptor = human D2L receptor (Homo sapiens (Human), UniProt P14416); assay: Dopamine D2L receptor binding test
Sequence of human D2L receptor (P14416 whole entry): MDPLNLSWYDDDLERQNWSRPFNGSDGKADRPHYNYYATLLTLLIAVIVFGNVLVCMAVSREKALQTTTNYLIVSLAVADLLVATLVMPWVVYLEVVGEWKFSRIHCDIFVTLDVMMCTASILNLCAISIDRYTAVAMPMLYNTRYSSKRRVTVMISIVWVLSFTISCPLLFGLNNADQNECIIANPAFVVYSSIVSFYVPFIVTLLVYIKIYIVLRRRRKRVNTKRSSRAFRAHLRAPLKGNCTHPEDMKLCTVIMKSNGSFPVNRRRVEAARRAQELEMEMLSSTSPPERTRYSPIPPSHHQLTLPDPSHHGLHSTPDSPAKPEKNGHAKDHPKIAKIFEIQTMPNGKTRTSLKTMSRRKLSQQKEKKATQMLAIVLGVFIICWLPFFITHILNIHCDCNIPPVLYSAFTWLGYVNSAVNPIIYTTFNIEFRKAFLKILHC

human 5-HT2C receptor = human 5-HT2C receptor (Homo sapiens (Human), UniProt P28335)
Sequence of human 5-HT2C receptor (P28335 whole entry, looked up): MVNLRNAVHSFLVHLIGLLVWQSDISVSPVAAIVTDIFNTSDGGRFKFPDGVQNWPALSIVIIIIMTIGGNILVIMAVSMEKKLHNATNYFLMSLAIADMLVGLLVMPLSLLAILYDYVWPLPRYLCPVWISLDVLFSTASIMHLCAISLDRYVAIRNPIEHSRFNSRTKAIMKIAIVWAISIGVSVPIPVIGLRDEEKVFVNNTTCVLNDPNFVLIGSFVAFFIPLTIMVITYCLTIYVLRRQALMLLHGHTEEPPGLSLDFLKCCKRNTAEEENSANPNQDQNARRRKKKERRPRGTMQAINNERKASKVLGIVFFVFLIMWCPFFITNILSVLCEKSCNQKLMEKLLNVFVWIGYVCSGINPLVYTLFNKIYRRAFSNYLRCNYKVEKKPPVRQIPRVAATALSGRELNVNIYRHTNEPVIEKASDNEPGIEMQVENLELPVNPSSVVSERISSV

[3] = [3H]-citalopram, h-SERT/CHO cell membrane, read-out: h-SERT binding inhibition constant Ki
[4] = [3H]-ketanserin, human 5-HT2A receptor-expressed CHO cell membrane, read-out: 5-HT2A receptor binding inhibition constant Ki
[5] = read-out: 5-HT2A receptor binding inhibition constant Ki

Row | SMILES | Ki [1, 3] [nM] | Ki (human 5-HT2A receptor; [4]) [nM] | other results
1 | CNCc1cc(OCc2cc(F)ccc2F)n(CC2CCCC2)n1.Cl [Example 147, 1-{1-(cyclopentylmethyl)-5-[(2,5-difluorobenzyl)oxy]-1H-pyrazol-3-yl}-N-methylmethanamine] | 0.61 | 2.2 | Inhibition ratio ([2]; dose 1 mg/kg): 46%; Inhibition ratio ([2]; dose 3 mg/kg): 46%; Inhibition ratio ([2]; dose 10 mg/kg): 71%**
2 | CNCc1cc(OCc2cc(Cl)ccc2F)n(CCC(C)(C)OC)n1 [Example 275, 1-{5-[(5-chloro-2-fluorobenzyl)oxy]-1-(3-methoxy-3-methylbutyl)-1H-pyrazol-3-yl}-N-methylmethanamine] |  | 5.9 | IC50 (human D2L receptor): > 1000 nM
3 | CNCc1cc(OCc2ccccc2Cl)n(C(C)C2CCCCC2)n1 (stereo not shown) [Example 296, 1-{5-[(2-chlorobenzyl)oxy]-1-(1-cyclohexylethyl)-1H-pyrazol-3-yl}-N-methylmethanamine] |  | 2.1 | Ki [1]: 0.91 nM; Ki (human 5-HT2C receptor): 6.2 nM
4 | CNCc1cc(OCc2ccccc2C)n(C(C)C2CCCCC2)n1 (stereo not shown) [Example 298, 1-{1-(1-cyclohexylethyl)-5-[(2-methylbenzyl)oxy]-1H-pyrazol-3-yl}-N-methylmethanamine] | 0.56 | 3.3 | 
5 | CNCc1cc(OCc2cccc(C)c2)n(C(C)C2CCCCC2)n1 (stereo not shown) [Example 299, 1-{1-(1-cyclohexylethyl)-5-[(3-methylbenzyl)oxy]-1H-pyrazol-3-yl}-N-methylmethanamine] | 1.4 | 5.6 | 
6 | CNCc1cc(OCc2ccc(F)cc2F)n(C(C)C2CCCCC2)n1 (stereo not shown) [Example 300, 1-{1-(1-cyclohexylethyl)-5-[(2,4-difluorobenzyl)oxy]-1H-pyrazol-3-yl}-N-methylmethanamine] | 1.8 | 0.57 | 
7 | CNCc1cc(OCc2ccc(F)cc2Cl)n(C(C)C2CCCCC2)n1 (stereo not shown) [Example 301, 1-{5-[(2-chloro-4-fluorobenzyl)oxy]-1-(1-cyclohexylethyl)-1H-pyrazol-3-yl}-N-methylmethanamine] | 1.3 | 0.88 | 
8 | CNCc1cc(OCc2ccc(F)cc2C)n(C(C)C2CCCCC2)n1 (stereo not shown) [Example 302, 1-{1-(1-cyclohexylethyl)-5-[(4-fluoro-2-methylbenzyl)oxy]-1H-pyrazol-3-yl}-N-methylmethanamine] | 1.4 | 0.94 | 
9 | CNCc1cc(OCc2cc(F)ccc2F)n(C(C)C2CCCCC2)n1 (stereo not shown) [Example 303, 1-{1-(1-cyclohexylethyl)-5-[(2,5-difluorobenzyl)oxy]-1H-pyrazol-3-yl}-N-methylmethanamine] | 0.46 | 1.8 | 
10 | CNCc1cc(OCc2cc(Cl)ccc2F)n(C(C)C2CCCCC2)n1 (stereo not shown) [Example 304, 1-{5-[(5-chloro-2-fluorobenzyl)oxy]-1-(1-cyclohexylethyl)-1H-pyrazol-3-yl}-N-methylmethanamine] | 1.3 |  | Ki (human 5-HT2A receptor; [5]): 1.4 nM
11 | CNCc1cc(OCc2cc(C)ccc2F)n(C(C)C2CCCCC2)n1 (stereo not shown) [Example 305, 1-{1-(1-cyclohexylethyl)-5-[(2-fluoro-5-methylbenzyl)oxy]-1H-pyrazol-3-yl}-N-methylmethanamine] | 2 |  | Ki (human 5-HT2A receptor; [5]): 2.5 nM
12 | CNCc1cc(OCc2ccccc2)n(CC2(C)CCCCC2)n1 [Example 331, 1-{5-(benzyloxy)-1-[(1-methylcyclohexyl)methyl]-1H-pyrazol-3-yl}-N-methylmethanamine] | 1.3 | 2.8 | 
13 | CNCc1nn(CC2CCCCC2)c(OCc2cc(F)ccc2F)c1F [Example 351] | 0.98 | 15 | 
14 | [2H]C([2H])(NC)c1cc(OCc2ccccc2)n(CC2CCCCC2)n1 [Example 492, 1-[5-(Benzyloxy)-1-(cyclohexylmethyl)-1H-pyrazol-3-yl]-N-methyl(^2H2)methanamine] |  |  | Ki [1]: 1.4 nM; Ki (human 5-HT2A receptor): 2.9 nM; Ki (human 5-HT2C receptor): 6.8 nM
15 | [2H]C([2H])([2H])NC([2H])([2H])c1cc(OCc2ccccc2)n(CC2CCCCC2)n1 [Example 493, 1-[5-(Benzyloxy)-1-(cyclohexylmethyl)-1H-pyrazol-3-yl]-N-(^2H3)methyl(^2H2) methanamine] |  |  | Ki [1]: 1.1 nM; Ki (human 5-HT2A receptor): 2.3 nM; Ki (human 5-HT2C receptor): 7.2 nM
16 | [2H]C([2H])([2H])NCc1cc(OCc2ccccc2)n(CC2CCCCC2)n1 [Example 494, 1-[5-(Benzyloxy)-1-(cyclohexylmethyl)-1H-pyrazol-3-yl]-N-(^2H3)methylmethanamine] |  |  | Ki [1]: 1.1 nM; Ki (human 5-HT2A receptor): 3.6 nM; Ki (human 5-HT2C receptor): 7.1 nM
17 | [2H]C([2H])(Oc1cc(CNC)nn1CC1CCCC1)c1cc(F)ccc1F [Example 495, 1-[1-(Cyclopentylmethyl)-5-{[(2,5-difluorophenyl) (^2H2)methyl]oxy}-1H-pyrazol-3-yl]-N-methylmethanamine Hydrochloride] |  | 2 | Ki [1]: 0.24 nM; Ki (human 5-HT2C receptor): 2.5 nM
18 | Cl.[2H]C([2H])(Oc1cc(CNC)nn1CC1CCCC1)c1cc(Cl)ccc1F [Example 496, 1-[5-{[(5-Chloro-2-fluorophenyl) (^2H2)methyl]oxy}-1-(cyclopentylmethyl)-1H-pyrazol-3-yl]-N-methylmethanamine Hydrochloride] |  |  | Ki [1]: 2 nM; Ki (human 5-HT2A receptor): 1.7 nM; Ki (human 5-HT2C receptor): 1.1 nM
19 | CNCc1cc(OCc2cc(F)ccc2F)n(CCC(C)(C)C)n1 [Example 500, 1-{5-[(2,5-Difluorobenzyl)oxy]-1-(3,3-dimethylbutyl)-1H-pyrazol-3-yl}-N-methylmethanamine Monophosphate] |  |  | IC50 (human D2L receptor): > 1000 nM
20 | CNCc1cc(OCc2cc(F)ccc2F)n(CC(C)(C)C)n1 [Example 504, 1-{5-[(2,5-Difluorobenzyl)oxy]-1-(2,2-dimethylpropyl)-1H-pyrazol-3-yl}-N-methylmethanamine monophosphate dihydrate] |  |  | IC50 (human D2L receptor): > 1000 nM
21 | CNCc1cc(OCc2cccc(Cl)c2)n(CC2OC3CCC2CC3)n1 (stereo not shown) [Example 508, 1-{5-[(3-chlorobenzyl)oxy]-1-(2-oxabicyclo[2.2.2]oct-3-ylmethyl)-1H-pyrazol-3-yl}-N-methylmethanamine] | 8.1 | 9.4 | 
